Source: patent publication US7803571B2, “Method for identifying IRS inhibitors or agonists” (Sanfoi-Aventis Deutschland GmbH, priority 2003, dated 2010)
Read-outs that look alike come from different tables or passages of the source. Square brackets hold non-standard residues; d marks the D form. Peptide text beside a SMILES is read from it. pY = N[C@@H](Cc1ccc(OP(=O)(O)O)cc1)C(=O)O; pS = N[C@@H](COP(=O)(O)O)C(=O)O

Key:
p85α [1] = biological target: T1, p85α (Bos taurus, UniProt P23727); assay: Surface plasmon resonance competition assay: binding of 100 nM p85α to immobilized IRS-1 peptides in the presence of competing soluble peptide; parameters: species or system bovine; conditions: SPR response at equilibrium 440 s after injection, competitor identical to immobilized peptide
T1 construct: GST (N, cleaved yes); made in house; host or cells: Escherichia coli BL21
T1 sequence (P23727 whole entry): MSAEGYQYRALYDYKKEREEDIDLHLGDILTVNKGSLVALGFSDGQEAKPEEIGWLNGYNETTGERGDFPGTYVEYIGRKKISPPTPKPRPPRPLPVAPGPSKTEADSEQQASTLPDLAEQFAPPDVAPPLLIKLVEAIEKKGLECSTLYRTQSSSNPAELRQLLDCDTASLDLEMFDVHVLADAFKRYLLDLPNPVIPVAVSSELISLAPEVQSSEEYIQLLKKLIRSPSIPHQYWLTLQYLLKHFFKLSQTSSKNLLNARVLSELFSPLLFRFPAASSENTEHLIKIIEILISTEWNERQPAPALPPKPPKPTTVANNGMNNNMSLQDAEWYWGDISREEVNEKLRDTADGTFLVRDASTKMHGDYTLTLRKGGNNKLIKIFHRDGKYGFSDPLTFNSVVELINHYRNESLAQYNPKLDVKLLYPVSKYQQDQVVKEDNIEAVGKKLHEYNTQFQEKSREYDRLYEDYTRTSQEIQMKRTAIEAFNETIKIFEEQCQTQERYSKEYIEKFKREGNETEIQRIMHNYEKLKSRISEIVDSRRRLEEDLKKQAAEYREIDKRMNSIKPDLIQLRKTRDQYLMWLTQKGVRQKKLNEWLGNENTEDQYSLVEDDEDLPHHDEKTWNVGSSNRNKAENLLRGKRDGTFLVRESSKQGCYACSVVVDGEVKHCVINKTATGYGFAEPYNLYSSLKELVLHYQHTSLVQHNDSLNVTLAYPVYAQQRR
Protocol: The principle of operation of the BIAcore™ biosensor (Biacore, Freiburg, Germany) has been described previously (42). To avoid the interfering dimerization of the GST part of the fusion protein, it was cleaved with thrombin during the purification. Because of the known extremely fast association rates of SH2-domains to phosphopeptides the relative affinities were assessed by competition assay (43). Therefore, a constant concentration of p85α (100 nM) was incubated in running buffer (0.01 M Hepes pH 7.4, 0.15 M NaCl, 3 mM EDTA, 0.005% Surfactant P20 (HBS-EP)) with a variable concentration of the competitor peptide (50 nM-10 μM), which was identical to that bound on the CM5 sensor chip surface. After a 1 h preincubation at room temperature the various mixtures were then injected sequentially at a flow rate of 5 μl/min at 25° C. in HBS-EP buffer. The used peptides DDGYMPMSPGV (SEQ ID NO: 7), DDGpYMPMSPGV, DDGYMPMpSPGV and DDGpYMPMpSPGV, representing the amino acids 605 to 615 of rat IRS-1, were synthesized on an Applied Biosystems model 433 peptide synthesizer. All peptides were immobilized with a concentration of 5 mg/ml in 100 mM […] (NaOH pH 8.5) at 1 μl/min by standard amine coupling procedure as described by the manufacturer. Regeneration after each binding experiment was performed by injection of 6 M guanidine hydrochloride for 2 min. The kinetic analysis of the p85α with pY608 and […] interaction has been performed using the BIAevaluation 3.1 software (Biacore, Freiburg, Germany) and GraphPad Prism 3.0 (San Diego, Calif., USA).
The inventors then determined the relative binding affinity of this reaction by monitoring the binding of 100 nM p85α to the peptides pY608 (DDGpYMPMSPGV) and pY608-pS612 (DDGpYMPMpSPGV) in the presence of competing soluble peptides (FIGS. 6D, E, F). Half-maximum inhibitory concentrations (IC50) were obtained by plotting the SPR response 440 s after injection at equilibrium versus the log peptide concentration. […] Solubilized peptides inhibited binding of p85α to the immobilized peptides at micromolar concentrations. […] In order to identify additional PKC-ζ phosphorylation sites on rIRS-1^449-664 that might promote the inhibition of insulin-stimulated tyrosine phosphorylation in the in vitro system, rIRS-1^449-664 was incubated with PKC-ζ and separated by SDS-PAGE. Phosphorylated rIRS-1^449-664 was digested with trypsin and extracted from the gel. The peptides generated by digestion were resolved by two dimensional HPLC and the content of radioactivity in the fractions was monitored by Cerenkov counting. […] To separate comigrating peptides, radioactive fractions of each peak were pooled according to the elution profile and subjected to reversed phase (RP)-HPLC (FIG. 7B). […]

insulin receptor = biological target: T2, insulin receptor (Rattus norvegicus, UniProt P15127); assay: In vitro phosphorylation assay: tyrosine phosphorylation of rIRS-1^449-664 by insulin receptor; assay type: biochemical
T2 construct: from tissue; host or cells: rat liver
T2 sequence (P15127 27-759 limits assumed): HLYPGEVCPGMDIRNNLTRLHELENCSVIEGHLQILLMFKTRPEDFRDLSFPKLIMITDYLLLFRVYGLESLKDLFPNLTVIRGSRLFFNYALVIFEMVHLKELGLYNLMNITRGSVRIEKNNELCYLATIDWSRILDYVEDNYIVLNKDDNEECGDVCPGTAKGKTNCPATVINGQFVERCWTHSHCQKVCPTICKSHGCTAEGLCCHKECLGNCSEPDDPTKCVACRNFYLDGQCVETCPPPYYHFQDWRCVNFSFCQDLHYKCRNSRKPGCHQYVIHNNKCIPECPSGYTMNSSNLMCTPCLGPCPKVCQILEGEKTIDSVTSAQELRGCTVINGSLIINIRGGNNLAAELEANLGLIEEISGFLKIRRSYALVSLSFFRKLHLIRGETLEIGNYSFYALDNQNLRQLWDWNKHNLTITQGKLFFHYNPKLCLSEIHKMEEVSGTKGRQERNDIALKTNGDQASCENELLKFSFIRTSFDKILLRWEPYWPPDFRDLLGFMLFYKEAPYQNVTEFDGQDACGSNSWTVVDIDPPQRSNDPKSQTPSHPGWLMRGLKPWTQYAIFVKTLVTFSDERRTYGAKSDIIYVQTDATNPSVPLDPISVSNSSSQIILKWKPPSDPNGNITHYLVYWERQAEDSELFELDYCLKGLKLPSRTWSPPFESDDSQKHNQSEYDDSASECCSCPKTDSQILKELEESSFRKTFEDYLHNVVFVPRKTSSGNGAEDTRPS
Protocol: Rat liver was rapidly removed, immediately frozen in liquid nitrogen and processed as described (41). Briefly, 3.5 vol/wt of an ice-cold buffer consisting of 50 mM Hepes (pH 7.4), 1% Triton X-100 and 2× Complete Protease Inhibitors was added and the liver was homogenized using an Ultraturrax and a Potter-Elvehjem homogenizer, followed by centrifugation at 10,000×g for 10 min at 4° C. The resultant supernatant was slowly stirred at room temperature for 60 min, then again centrifuged at 100,000×g for 90 min at 4° C. The supernatant was then applied to an agarose-bound wheat germ agglutinin (WGA) column. The column was washed with 50 mM Hepes (pH 7.4), 0.1% Triton X-100, and bound glycoproteins were eluted from the WGA column with this buffer containing 0.3 M N-acetylglucoseamine.
For rIRS-1^449-664 phosphorylation by insulin receptor, […] of the WGA-purified glycoprotein fraction was preincubated for 30 min at 30° C. with 100 nM of insulin in a phosphorylation buffer containing 20 mM Hepes (pH 7.4), 1 mM DTT, 10 mM MgCl2, 100 μg/ml bovine serum albumin, 0.2 mM Na3VO4, 1.7 mM CaCl2, 0.6 mg/ml phosphatidylserine, and 0.5 μg/ml okadaic acid. Autophosphorylation was initiated by the addition of ATP at a concentration of 50 μM and continued for 10 min at 30° C. Substrate phosphorylations were initiated by addition of equal volumes of […] (1 μg) with or without pre-treatment (30 min) by the PKC isoforms in the same buffer in the presence of 50 μM ATP and was allowed to proceed for 10 min at 30° C. in a final volume of 50 μl. The reaction was terminated by the addition of 6× sample buffer (0.35 M Tris-HCl (pH 6.8), 10.28% (w/v) SDS, 36% (v/v) glycerol; 0.6 M DTT, 0.012% (w/v) bromphenol blue) and boiling for 5 min. Proteins were separated by SDS-PAGE and analyzed by immunodetection with an anti-phosphotyrosine antibody after transfer to nitrocellulose. Serine/threonine phosphorylation of rIRS-1^449-664 by different PKC isoforms was assessed by incubating 1 μg rIRS-1^449-664 with 0.5 μg PKC-rb or PKC-ζ in phosphorylation buffer for 30 min at 30° C. in the presence of 50 μM ATP plus 2 μCi [γ-^32P]ATP in a volume of 20 μl. Proteins were resolved by SDS-PAGE and the stained and dried gels were subjected to autoradiography. The extent of phosphate incorporation was determined by Cerenkov counting of excised fragments.
Proteins were separated by SDS-PAGE using 8-18% gradient gels followed by transfer to nitrocellulose in a semi-dry blotting apparatus. […] All blots were quantified using the Lumilmager software. Significance of reported differences was evaluated by using the null hypothesis and t statistics for unpaired data. […]

p85α [2] = biological target: T1, p85α; assay: GST pull down assay: interaction of rIRS-1^449-664 with p85α; assay type: binding, bovine; conditions: after insulin-stimulated tyrosine phosphorylation by IR
Protocol: In vitro phosphorylated rIRS-1^449-664 was incubated with glutathione sepharose beads on a rotator for 1 h at 4° C. Pellets were washed three times with binding buffer (50 mM Tris (pH 7.4), 150 mM NaCl, 1% (v/v) Nonidet P-40, 1 mM EDTA, 1 mM NaF, 1 mM Na3VO4). Then 0.5 μg recombinant p85α was added and incubation was continued for 2 h at 4° C. After three times washing, the bound proteins were eluted with 20 μl of 2× sample buffer and separated by SDS-PAGE.
Proteins were separated by SDS-PAGE using 8-18% gradient gels followed by transfer to nitrocellulose in a semi-dry blotting apparatus. The membrane was then blocked 60 min in Tris-buffered saline containing 0.05% Tween 20 and 1% BSA or 5% non fat dry milk and probed with appropriate antibodies (anti-IRS-1, anti-pTyr, anti-p85α). After extensive washing, the membranes were incubated with horseradish peroxidase-conjugated secondary antibodies, again washed and then the protein bands were visualized by the enhanced chemiluminescence (ECL) method on a Lumilmager workstation (Boehringer, Mannheim, Germany). All blots were quantified using the Lumilmager software. Significance of reported differences was evaluated by using the null hypothesis and t statistics for unpaired data. A p value less than 0.05 was considered to be statistically significant.

[3] = read-out: IC50, inhibition of p85α binding by soluble peptide, two site competition fit, first value
[4] = read-out: IC50, inhibition of p85α binding by soluble peptide, two site competition fit, second value

Row | IC50 (p85α [1]; [3]) [nM] | IC50 (p85α [1]; [4]) [nM] | Insulin-stimulated tyrosine phosphorylation, stimulation over basal (insulin receptor; WGA-purified insulin receptor, 100 nM insulin, n=10) [fold] | Reduction of tyrosine phosphorylation by IR after PKC-ζ pretreatment (insulin receptor; wild type and mutant fusion proteins as substrate, relative to insulin-stimulated control) | Interaction of p85α with the tyrosine phosphorylated fusion protein (p85α [2]) | Molecule
1 | 260 | 16600 | – | – | – | CSCC[C@H](NC(=O)[C@@H]1CCCN1C(=O)[C@H](CCSC)NC(=O)[C@H](Cc1ccc(OP(=O)(O)O)cc1)NC(=O)CNC(=O)[C@H](CC(=O)O)NC(=O)[C@@H](N)CC(=O)O)C(=O)N[C@@H](CO)C(=O)N1CCC[C@H]1C(=O)NCC(=O)N[C@H](C(=O)O)C(C)C [pY608, DDGpYMPMSPGV] (H-DDG[pY]MPMSPGV-OH; N-terminus and C-terminus assumed)
2 | 150 | 2880 | – | – | – | CSCC[C@H](NC(=O)[C@@H]1CCCN1C(=O)[C@H](CCSC)NC(=O)[C@H](Cc1ccc(OP(=O)(O)O)cc1)NC(=O)CNC(=O)[C@H](CC(=O)O)NC(=O)[C@@H](N)CC(=O)O)C(=O)N[C@@H](COP(=O)(O)O)C(=O)N1CCC[C@H]1C(=O)NCC(=O)N[C@H](C(=O)O)C(C)C [pY608-pS612, DDGpYMPMpSPGV] (H-DDG[pY]MPM[pS]PGV-OH)
3 | – | – | 8.8±1.1 | 30-40% | significant increase | rIRS-1^449-664: glutathione S-transferase (GST) fusion protein containing the amino acids 449-664 of rat IRS-1 (SEQ ID NO: 17) (protein, left off: a dimerising Fc or GST) PPARGEEELSNYICMGGKGASTLTAPNGHYILSRGGNGHRYIPGATMGTSPALTGDEAAGAADLDNRFRKRTHSAGTSPTISHQKTPSQSSVVSIEEYTEMMPAAYPPGGGSGGRLPGYRHSAFVPTHSYPEEGLEMHHLERRGGHHRPDSSNLHTDDGYMPMSPGVAPVPSNRKGNGDYMPMSPKSVSAPQQIINPIRRHPQRVDPNGYMMMSPS
